For test [1], the system named is LXN. Put plainly: LXN gene expression by microarray in K562 cells. Type of test: cell-based. The following applies: 100 nM OR21, 1000 nM imatinib. On the procedure: (§1) K562 cells (cell lines derived from CML) were purchased from JCRB cell bank and KBM5 cells (cell lines derived from CML) were provided by Dr. M. Beran (MD Anderson Cancer Center, University of Texas). These calls were cultured in an RPMI 1640 medium containing 10% fetal bovine serum (FBS) and 1% penicillin-streptomycin at 37° C. in atmosphere of 5% CO2.
(§2) After the culture, mRNA was collected and gene expression was comprehensively analyzed by microarrays.

Test [2] relates to LXN. Nature of the test: LXN gene expression by microarray in KBM5 cells. In kind it is cell-based. The note with it: 100 nM OR21, 1000 nM imatinib. Here is the method:
as §1, §2

In test [3] the test system is LXN. Put plainly: LXN protein expression by Western blotting, OR21 with TKI (FIG. 5). In kind it is cell-based. The note with it: K562 and KBM5 cells, 100 nM OR21, 1000 nM imatinib, 2.5 nM dasatinib, 1, 2 and 3 days, corrected with β actin. On the procedure:
as §1
0, 24, and 48 hours after the cell seeding, 100 nM OR21, a DNA methyltransferase inhibitor, was added. […] After the culture, the cells were collected, dissolved, and determined for protein expression level of LXN by Western blotting. […] The expression level of LXN shown in FIG. 5 represents each expression level of the cases when the LXN expression under each condition was corrected with β actin and the expression level in the control was taken as 1.0.

The test system of another test is DNMT1. Put plainly: DNMT1 expression in K562 cells (FIG. 6). Type of test: cell-based. The note with it: 100 nM azacytidine, decitabine or cytarabine.
The test system of test [4] is LXN. Nature of the test: LXN protein expression by Western blotting in K562 cells, azacytidine/decitabine/cytarabine with imatinib (FIG. 6). In kind it is cell-based. The following applies: 100 nM azacytidine, decitabine or cytarabine, 1000 nM imatinib. On the procedure: 0, 24, and 48 hours after the cell seeding, azacytidine (100 nM), decitabine (100 nM), or cytarabine (100 nM) was added to K562 cell culture, cultured for 2 days. […] After the culture, the cells were collected, dissolved, and determined for protein expression level of LXN by Western blotting. The expression level of LXN shown in FIG. 6 represents each expression level of the cases when the LXN expression under each condition was corrected with β actin and the expression level in the control was taken as 1.0.
For orientation: In western blotting, separated proteins are transferred to a membrane and probed.

Another test relates to stem cells of CML. Nature of the test: Limiting dilution assay in secondarily transplanted mice. Type of test: in vivo. The following applies: peripheral blood, 16 weeks after secondary transplantation; compared to vehicle or IM donor group.
The subject of test [5] is stem cells or progenitor cells of CML. Nature of the test: Mouse model of CML (recipient mice engrafted with GFP positive MIG-BCR-ABL1 myeloid cells). In kind it is in vivo. The following applies: after 12 days of administration, OR21 1.35 mg/kg i.p., IM 150 mg/kg oral. Here is the method: Recipient mice were engrafted with myeloid cells to which GFP positive MIG-BCR-ABL1 had been introduced and used as CML models. […] After administration of the drugs to each group for 12 days, the GFP positive cells in peripheral blood, bone marrow, and spleen were determined. Inter-group comparisons were performed by a significance test of Mann-Whitney U-tests (p<0.05, **p<0.01) in FIG. 1.

Protocol for stem cells of CML: Then, engraftment of GFP positive cells in the peripheral blood (PB) at 16 weeks after the secondary transplantation was determined and analyzed by limiting dilution assay. […] The bottom row of the table indicates the cell number required to be engrafted. The larger numbers mean that it is more difficult to engraft. It is noted that engraftment of GFP positive cells is defined to have a GFP positive rate of 0.5% or more in the peripheral blood of recipient mice. […] The higher plots or slope of the lines mean that it is more difficult to engraft.

For `Cc1ccc(NC(=O)c2ccc(CN3CCN(C)CC3)cc2)cc1Nc1nccc(-c2cccnc2)n1` [imatinib], the “gene expression level of LXN in respect of the control” value turned out to be 1.3 times in the test with LXN [1] and 1.9 times in the test with LXN [2]. In the test with LXN [3], the “protein expression level of LXN” value was “almost no effect”.

For the molecule `Nc1ncn([C@@H]2O[C@H](CO)[C@@H](O)[C@H]2O)c(=O)n1` [azacytidine, 4-amino-1-β-D-ribofuranosyl-s-triazin-2(1H)-one], the “expression of DNMT1” value with DNMT1 is “reduced”.

Take `Nc1ncn([C@H]2C[C@H](O)[C@@H](CO)O2)c(=O)n1` [decitabine, 4-amino-1-(2-deoxy-β-D-erythro-pentofuranosyl)-1,3,5-triazin-2(1H)-one]: the “protein expression of LXN” value with LXN [4] is “increased”. The “expression of DNMT1” value with DNMT1 was “reduced”.

As for `Nc1ccn([C@@H]2O[C@H](CO)[C@@H](O)[C@@H]2O)c(=O)n1` [cytarabine], the “protein expression of LXN” value in the test on LXN [4] is “no increase”. Moreover, in the test with DNMT1, the “expression of DNMT1” value was “did not exhibit inhibitory effect”.

`CC[Si](CC)(CC)OC[C@H]1O[C@@H](n2cnc(N)nc2=O)C[C@@H]1O` [OR21]: the “GFP positive cells in mice of the secondary transplantation” value in the test on stem cells of CML is reported as “significantly reduced”. Also, in test [5], the “linage-negative cells (Lin-) in bone marrow” value is listed as “decreased”. The “Lin-Sca-1+c-Kit+ (LSK) cells” value in test [5] (bone marrow) is given as “decreased”. Besides, the “GFP positive cell rate” value in test [5] (peripheral blood, bone marrow and spleen, compared to vehicle group) is listed as “significant decrease”. The entries for the “gene expression level of LXN in respect of the control” value with LXN [1] and with LXN [2] were 4.5 times and 3.4 times, respectively. Moreover, the “protein expression level of LXN” value in the test on LXN [3] is listed as “increase in the protein expression level of LXN over time”.
